Entries after “also recorded” stand apart in the source; their conditions may differ.
Key:
ITK = biological target: T1, ITK (Homo sapiens, UniProt Q08881); experiment: KINOMEscan; type: binding; details: read-out: Remaining enzyme activity
T1 construct: purchased Ambit (DiscoverX) KINOMEscan; Cerep
Method: (§1) The KINOMEscan was carried out by Ambit (San Diego, USA) according to a previously established protocol. The experiment was based on a competition binding assay that quantitatively measures the ability of a compound to compete with an immobilized, active-site directed ligand. The assay is performed by combining three components: DNA-tagged kinase; immobilized ligand; and a test compound. The ability of the test compound to compete with the immobilized ligand is measured via quantitative PCR of the DNA tag.
(§2) For most assays, kinase-tagged T7 phage strains were grown in parallel in 24-well blocks in an Escherichia coli host derived from the BL21 strain. E. coli were grown to log-phase and infected with T7 phage from a frozen stock and incubated with shaking at 32 °C until lysis (90–150 min). The lysates were centrifuged (6,000g) and filtered (0.2 μm) to remove cell debris. The remaining kinases were produced in HEK-293 cells (Sigma Aldrich, catalogue number: 85120602) and subsequently tagged with DNA for quantitative PCR detection. […] The liganded beads were blocked with excess biotin and washed with blocking buffer (SeaBlock (Pierce), 1% bovine serum albumin, 0.05% Tween 20 and 1 mM dithiothreitol) to remove unbound ligand and to reduce non-specific phage binding. […] SC81458 was prepared as 40x stock in 100% DMSO and directly diluted into the assay to a final concentration of 10 μM. All reactions were performed in polypropylene 384-well plates in a final volume of 0.04 ml. […] The kinase concentration in the eluates was measured by quantitative PCR.

PRKD2 = biological target: T2, PRKD2 (Homo sapiens, UniProt Q9BZL6); experiment: KINOMEscan; type: binding; details: read-out: Remaining enzyme activity
T2 construct: purchased Ambit (DiscoverX) KINOMEscan; Cerep
Method: as §1, §2

[1] = Tolerability of i.v. bolus dose; type: in vivo, mouse; details: mice
Method: (§3) The maximal-tolerated i.v. bolus dose of SC83288 was at 30 mg kg^−1 body weight (extrapolated initial drug plasma concentration C0 of 65,600 ng ml^−1) and 15 mg kg^−1 body weight (C0 of 27,300 ng ml^−1) in rats and mice, respectively. Observed adverse effects included ataxia, respiratory symptoms and sleepiness. However, all treated animals fully recovered within 30 min after drug application. […] Increasing the dose to 45 mg kg^−1 body weight caused apnoea in rats. The no-observed-adverse-effect level and the no-observed-effect level in rats corresponded to a tested i.v. bolus dose of 22.5 mg kg^−1 body weight (C0 of 49,200 ng ml^−1) and 15 mg kg^−1 body weight (C0 of 32,800 ng ml^−1), respectively.
On the treatment day, all animals were weighed and the dosing volume was calculated for each individual animal according to its actual body weight. All animal were dosed once. Blood samples were taken at different time points and plasma was collected after centrifugation (10,000g, 10 min, 4 °C). Plasma samples were analysed by LC–MS/MS. […] All relevant observations were recorded. The PK studies in cynomolgus monkeys and beagle dogs were performed by the Laboratory of Pharmacology and Toxicology (LPT), Hamburg, and PK and toxicity studies in mice and rats were performed by the 4SC Discovery GmbH, Munich. […]

in vivo = type: in vivo, rat; details: for C0: rat, in vivo, iv; for ALB / ALB/GLOB / ALP / ALT / AMY / AST / BUN / BUN/CREA / CA / CK / CRE / EOS / GLOB / GLU / HCT / HGB / K+ / MCH / MCHC / MCV / MPV / NA+ / NA/K / PHOS / PLT / RBC / RDW / TBIL / TP / WBC: 24h
Method: as §3
On the treatment day, all animals were weighed and the dosing volume was calculated for each individual animal according to its actual body weight. All animal were dosed once. Blood samples were taken at different time points and plasma was collected after centrifugation (10,000g, 10 min, 4 °C). Plasma samples were analysed by LC–MS/MS. […] All relevant observations were recorded. The PK studies in cynomolgus monkeys and beagle dogs were performed by the Laboratory of Pharmacology and Toxicology (LPT), Hamburg, and PK and toxicity studies in mice and rats were performed by the 4SC Discovery GmbH, Munich. PK parameters were obtained by a non-compartment analysis, using Kinetica 4.1 (Thermo Scientific).

T2 sequence (Q9BZL6 whole entry): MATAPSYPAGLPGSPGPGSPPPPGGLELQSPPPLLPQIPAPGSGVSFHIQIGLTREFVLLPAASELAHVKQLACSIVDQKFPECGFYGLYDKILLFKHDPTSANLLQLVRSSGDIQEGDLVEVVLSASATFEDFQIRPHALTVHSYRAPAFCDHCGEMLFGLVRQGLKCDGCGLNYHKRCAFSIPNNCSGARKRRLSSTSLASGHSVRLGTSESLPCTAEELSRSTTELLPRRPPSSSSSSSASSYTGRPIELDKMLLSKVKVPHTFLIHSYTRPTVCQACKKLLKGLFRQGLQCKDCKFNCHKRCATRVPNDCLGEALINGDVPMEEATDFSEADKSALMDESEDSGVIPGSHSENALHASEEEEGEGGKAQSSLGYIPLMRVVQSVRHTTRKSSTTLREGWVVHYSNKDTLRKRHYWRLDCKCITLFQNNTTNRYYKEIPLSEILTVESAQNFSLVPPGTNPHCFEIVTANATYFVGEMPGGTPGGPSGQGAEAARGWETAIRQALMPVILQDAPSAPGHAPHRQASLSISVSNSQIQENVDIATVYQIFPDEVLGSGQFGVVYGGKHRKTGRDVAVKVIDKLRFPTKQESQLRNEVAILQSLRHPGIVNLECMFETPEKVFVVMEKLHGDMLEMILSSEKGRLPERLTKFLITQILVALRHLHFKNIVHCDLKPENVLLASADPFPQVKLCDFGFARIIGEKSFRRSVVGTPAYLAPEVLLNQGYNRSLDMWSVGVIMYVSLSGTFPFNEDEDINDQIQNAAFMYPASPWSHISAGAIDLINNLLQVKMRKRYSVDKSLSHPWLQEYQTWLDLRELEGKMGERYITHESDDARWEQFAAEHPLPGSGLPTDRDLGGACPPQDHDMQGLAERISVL
T1 sequence (Q08881 whole entry): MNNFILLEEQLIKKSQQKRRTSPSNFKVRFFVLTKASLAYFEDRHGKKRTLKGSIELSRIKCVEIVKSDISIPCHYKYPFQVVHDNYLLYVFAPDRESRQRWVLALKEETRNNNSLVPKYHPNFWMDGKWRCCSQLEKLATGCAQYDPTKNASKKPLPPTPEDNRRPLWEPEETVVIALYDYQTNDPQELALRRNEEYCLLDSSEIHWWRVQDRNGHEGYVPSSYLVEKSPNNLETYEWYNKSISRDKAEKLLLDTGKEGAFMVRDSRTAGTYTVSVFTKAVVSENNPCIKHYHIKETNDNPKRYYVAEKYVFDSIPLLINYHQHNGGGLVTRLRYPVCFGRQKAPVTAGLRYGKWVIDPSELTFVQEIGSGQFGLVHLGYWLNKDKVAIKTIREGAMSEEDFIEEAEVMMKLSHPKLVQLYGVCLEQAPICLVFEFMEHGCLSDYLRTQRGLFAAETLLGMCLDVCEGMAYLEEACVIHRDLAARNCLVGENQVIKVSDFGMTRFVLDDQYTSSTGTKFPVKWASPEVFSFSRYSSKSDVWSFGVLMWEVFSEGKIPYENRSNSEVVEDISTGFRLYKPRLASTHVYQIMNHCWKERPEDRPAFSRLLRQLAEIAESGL

`CCCCN1CCN(C(=N)c2cccc(NC(=O)Nc3ccc(S(=O)(=O)NCc4ccc(S(N)(=O)=O)cc4)cc3)c2)CC1` [SC81458, 4-(3-(3-((4-butylpiperazin-1-yl)(imino)methyl)phenyl)ureido)-N-(4-sulfamoylbenzyl) benzenesulfonamide] gave a remaining binding at 10 µM (ITK) of 86% and a remaining binding at 10 µM (PRKD2) of 97%.

With `COC(=O)N1CCN(C(=N)c2cccc(NC(=O)Nc3ccc(S(=O)(=O)NCc4ccc(S(N)(=O)=O)cc4)cc3)c2)CC1` [SC83288, methyl 4-(imino(3-(3-(4-(N-(4-sulfamoylbenzyl)sulfamoyl)phenyl)ureido)phenyl)methyl) piperazine-1-carboxylate] the “maximal-tolerated i.v. bolus dose” value [1] was 15 mg kg^−1 body weight, the C0 ([1]; mouse, plasma, iv, 15 mg kg^−1 i.v. bolus, read-out: extrapolated C0) was 27300 ng/mL and the “haematological and clinical biochemical parameters” value (in vivo; 24 h post application) was “remained within normal range”. The safety margin (in vivo; projected dosing regimen vs i.v. NOAEL in rats) was about 55 fold, the C0 (in vivo; rats, 15 mg kg^−1 i.v. bolus (NOEL), read-out: extrapolated C0) was 32800 ng/mL and the C0 (in vivo; rats, 22.5 mg kg^−1 i.v. bolus (NOAEL), read-out: extrapolated C0) was 49200 ng/mL. For the same compound, the C0 (in vivo; rats, 30 mg kg^−1 i.v. bolus, read-out: extrapolated initial drug plasma concentration C0) was 65600 ng/mL, the “maximal-tolerated i.v. bolus dose” value (in vivo; rats) was 30 mg kg^−1 body weight and the “time to full recovery after drug application” value (in vivo; rats and mice at maximal-tolerated dose) was at most 30 min. For the same compound, the adverse effect (in vivo; rats, 45 mg kg^−1 body weight) was “apnea; also recorded: apnoea”, the ALB (in vivo; rats, 15 mg/kg) was 4.9 g/dL and the ALB/GLOB (in vivo; rats, 15 mg/kg) was 5.5 g/dL. It also gave an ALP (in vivo; rats, 15 mg/kg) of 306 U l-1, an ALT (in vivo; rats, 15 mg/kg) of 51 U l-1 and an AMY (in vivo; rats, 15 mg/kg) of 909 U l-1. The AST (in vivo; rats, 15 mg/kg) was 70 U l-1, the BUN (in vivo; rats, 15 mg/kg) was 14.7 mg/dL and the BUN/CREA (in vivo; rats, 15 mg/kg) was 66.7 mg/dL. It also gave a CA (in vivo; rats, 15 mg/kg) of 11.0 mg/dL, a CK (in vivo; rats, 15 mg/kg) of 176 U l-1 and a CRE (in vivo; rats, 15 mg/kg) of 0.2 mg/dL. The EOS (in vivo; rats, 15 mg/kg) was 0.4%, the GLOB (in vivo; rats, 15 mg/kg) was 0.9 g/dL and the GLU (in vivo; rats, 15 mg/kg) was 202 mg/dL. For the same compound, the HCT (in vivo; rats, 15 mg/kg) was 40.9%, the HGB (in vivo; rats, 15 mg/kg) was 14.3 g/dL and the “K+” value (in vivo; rats, 15 mg/kg) was 5.1 mmol/L. It also gave an MCH (in vivo; rats, 15 mg/kg) of 20.5 pg, an MCHC (in vivo; rats, 15 mg/kg) of 35.1 g/dL and an MCV (in vivo; rats, 15 mg/kg) of 58 µm3. For the same compound, the MPV (in vivo; rats, 15 mg/kg) was 5.7 µm3, the “NA+” value (in vivo; rats, 15 mg/kg) was 136 mmol/L and the NA/K (in vivo; rats, 15 mg/kg) was 26.7 mmol/L. The PHOS (in vivo; rats, 15 mg/kg) was 9.4 mg/dL, the PLT (in vivo; rats, 15 mg/kg) was 812 103 mm-3 and the RBC (in vivo; rats, 15 mg/kg) was 7.00 103 mm-3. For the same compound, the RDW (in vivo; rats, 15 mg/kg) was 13.3%, the TBIL (in vivo; rats, 15 mg/kg) was 0.4 mg/dL and the TP (in vivo; rats, 15 mg/kg) was 5.8 g/dL. The WBC (in vivo; rats, 15 mg/kg) was 16.7 103 mm-3, the ALB (in vivo; rats, 22.5 mg/kg) was 5.0 g/dL and the ALB/GLOB (in vivo; rats, 22.5 mg/kg) was 6.7 g/dL. The ALP (in vivo; rats, 22.5 mg/kg) was 399 U l-1, the ALT (in vivo; rats, 22.5 mg/kg) was 58 U l-1 and the AMY (in vivo; rats, 22.5 mg/kg) was 921 U l-1. For the same compound, the AST (in vivo; rats, 22.5 mg/kg) was 79 U l-1, the BUN (in vivo; rats, 22.5 mg/kg) was 17.5 mg/dL and the BUN/CREA (in vivo; rats, 22.5 mg/kg) was 72.5 mg/dL. For the same compound, the CA (in vivo; rats, 22.5 mg/kg) was 11.0 mg/dL, the CK (in vivo; rats, 22.5 mg/kg) was 97 U l-1 and the CRE (in vivo; rats, 22.5 mg/kg) was 0.3 mg/dL. It also gave an EOS (in vivo; rats, 22.5 mg/kg) of 0.3%, a GLOB (in vivo; rats, 22.5 mg/kg) of 0.8 g/dL and a GLU (in vivo; rats, 22.5 mg/kg) of 160 mg/dL. The HCT (in vivo; rats, 22.5 mg/kg) was 39.6%, the HGB (in vivo; rats, 22.5 mg/kg) was 14.2 g/dL and the “K+” value (in vivo; rats, 22.5 mg/kg) was 5.3 mmol/L. For the same compound, the MCH (in vivo; rats, 22.5 mg/kg) was 21.0 pg, the MCHC (in vivo; rats, 22.5 mg/kg) was 35.9 g/dL and the MCV (in vivo; rats, 22.5 mg/kg) was 59 µm3. The MPV (in vivo; rats, 22.5 mg/kg) was 5.9 µm3, the “NA+” value (in vivo; rats, 22.5 mg/kg) was 135 mmol/L and the NA/K (in vivo; rats, 22.5 mg/kg) was 25.7 mmol/L. For the same compound, the PHOS (in vivo; rats, 22.5 mg/kg) was 9.2 mg/dL, the PLT (in vivo; rats, 22.5 mg/kg) was 847 103 mm-3 and the RBC (in vivo; rats, 22.5 mg/kg) was 6.77 103 mm-3. For the same compound, the RDW (in vivo; rats, 22.5 mg/kg) was 13.3%, the TBIL (in vivo; rats, 22.5 mg/kg) was 0.3 mg/dL and the TP (in vivo; rats, 22.5 mg/kg) was 5.7 g/dL. The WBC (in vivo; rats, 22.5 mg/kg) was 14.3 103 mm-3, the ALB (in vivo; rats, 30 mg/kg) was 5.4 g/dL and the ALB/GLOB (in vivo; rats, 30 mg/kg) was 8.9 g/dL. For the same compound, the ALP (in vivo; rats, 30 mg/kg) was 424 U l-1, the ALT (in vivo; rats, 30 mg/kg) was 58 U l-1 and the AMY (in vivo; rats, 30 mg/kg) was 962 U l-1. It also gave an AST (in vivo; rats, 30 mg/kg) of 85 U l-1, a BUN (in vivo; rats, 30 mg/kg) of 15.7 mg/dL and a BUN/CREA (in vivo; rats, 30 mg/kg) of 78.3 mg/dL. The CA (in vivo; rats, 30 mg/kg) was 11.2 mg/dL, the CK (in vivo; rats, 30 mg/kg) was 91 U l-1 and the CRE (in vivo; rats, 30 mg/kg) was 0.2 mg/dL. The EOS (in vivo; rats, 30 mg/kg) was 0.3%, the GLOB (in vivo; rats, 30 mg/kg) was 0.6 g/dL and the GLU (in vivo; rats, 30 mg/kg) was 170 mg/dL. The HCT (in vivo; rats, 30 mg/kg) was 40.1%, the HGB (in vivo; rats, 30 mg/kg) was 14.3 g/dL and the “K+” value (in vivo; rats, 30 mg/kg) was 5.4 mmol/L. It also gave an MCH (in vivo; rats, 30 mg/kg) of 20.5 pg, an MCHC (in vivo; rats, 30 mg/kg) of 35.8 g/dL and an MCV (in vivo; rats, 30 mg/kg) of 57 µm3. For the same compound, the MPV (in vivo; rats, 30 mg/kg) was 5.7 µm3, the “NA+” value (in vivo; rats, 30 mg/kg) was 136 mmol/L and the NA/K (in vivo; rats, 30 mg/kg) was 25.2 mmol/L. For the same compound, the PHOS (in vivo; rats, 30 mg/kg) was 9.0 mg/dL, the PLT (in vivo; rats, 30 mg/kg) was 869 103 mm-3 and the RBC (in vivo; rats, 30 mg/kg) was 7.00 103 mm-3. For the same compound, the RDW (in vivo; rats, 30 mg/kg) was 13.4%, the TBIL (in vivo; rats, 30 mg/kg) was 0.3 mg/dL and the TP (in vivo; rats, 30 mg/kg) was 6.0 g/dL. The WBC (in vivo; rats, 30 mg/kg) was 11.2 103 mm-3, the no-observed-adverse-effect level (in vivo; rats, i.v. bolus) was 22.5 mg kg^−1 body weight and the no-observed-effect level (in vivo; rats, i.v. bolus) was 15 mg kg^−1 body weight.
